Assay results published in patent US20050014182A1, “Use of calpain for identifying compounds that modulate pain” (Aventis Pharma Deutschland GmbH, priority 2003, published 2005).
“Also recorded” adds a separate entry of the source. Where two headings read alike, the source gives them in different places. Where a SMILES comes first, the peptide text is derived from it. The star is where a group is joined. Cbz = O=C(OCc1ccccc1)*

Legend:
[1] = tested on: zymosan induced thermal hyperalgesia; experiment: Zymosan induced thermal hyperalgesia (paw withdrawal latency, Hargreaves); type: in vivo, rat; conditions: for thermal hyperalgesia (paw withdrawal latency): rats, 25 mg/kg i.p., 1.25 mg zymosan intraplantar, 25 mg/kg
Experimental: Unilateral hind paw inflammation and paw oedema was induced by subcutaneous injection of 1.25 mg zymosan (Sigma, München, Germany), suspended in 100 μl phosphate buffered saline (12.5 mg/ml), into the midplantar region of the right hind paw. After 24, 48 or 96 h animals were anaesthetized and killed by cardiac puncture. Spinal cords were excised, directly frozen in liquid nitrogen and then kept at −80° C. until further analysis. Nociceptive paw withdrawal latency to radial heat was assessed according to Hargreaves (Hargreaves et al., 1988), using a commercially available special device (Ugo Basile, Varese, Italy). Rats were placed in transparent plastic chambers (18×29×12.5 cm) on a metal grid (5×5 mm). The heat source consisting of a high projector lamp bulb was focused on the mid-plantar surface of the hind paw. The bulb and an electronic timer were simultaneously activated at the test start, and both were automatically inactivated when a photocell detected a paw withdrawal in response to the heat. Paw withdrawal latencies (PWL) of the right and left paw (treated and untreated paw) were recorded before and every 60 min up to 8 h and 24 h after zymosan injection. […] Six animals were used for each treatment group. (Controls received 1 ml of vehicle.) Treatments were randomly allocated to animals and the observers were unaware of treatment allocations. The percent relative difference in paw withdrawal latency (ΔPWL) between the zymosan treated right and the untreated left hind paw, calculated as: ΔPWL=(right−left)/left×100, was used to asses antinociceptive effects. […] The areas under the ΔPWL versus time curves (AUCΔPWL) as well as the areas under the ΔPV versus time curves (AUCΔPV) were calculated using the linear trapezoidal rule. […] Effects of study medications were assessed by submitting the AUCΔPV from 0-8 h to univariate analysis of variance (ANOVA) with subsequent t-tests employing a Bonferroni […]-correction for multiple comparisons. Statistical significance of ΔPWL was calculated by unpaired Student's t-test (zymosan-treated rats versus control rats). □ was set at 0.05.

[2] = tested on: zymosan induced paw oedema; experiment: Zymosan induced paw inflammation model (paw oedema); type: in vivo, rat; conditions: for paw oedema (AUC of paw volume increase 0-8 h) versus control: 25 mg/kg i.p., 1.25 mg zymosan intraplantar, 25 mg/kg
Experimental: Unilateral hind paw inflammation and paw oedema was induced by subcutaneous injection of 1.25 mg zymosan (Sigma, München, Germany), suspended in 100 μl phosphate buffered saline (12.5 mg/ml), into the midplantar region of the right hind paw. After 24, 48 or 96 h animals were anaesthetized and killed by cardiac puncture. Spinal cords were excised, directly frozen in liquid nitrogen and then kept at −80° C. until further analysis. Paw oedema was induced by zymosan injection as described above. The paw volume was measured before and 0.25, 0.5, 1, 2, 4, 6, 8 and 24 h after zymosan injection using a plethysmometer (Ugo Basile, Varese, Italy). Six rats per group were used. At each time point five measurements of the paw volume were taken. The average of these five measurements was used for further analysis. […] Six animals were used for each treatment group. (Controls received 1 ml of vehicle.) Treatments were randomly allocated to animals and the observers were unaware of treatment allocations. The percent relative difference in paw withdrawal latency (ΔPWL) between the zymosan treated right and the untreated left hind paw, calculated as: ΔPWL=(right−left)/left×100, was used to asses antinociceptive effects. To evaluate anti-inflammatory effects, the relative difference between the paw volume before and after zymosan injection (ΔPV) was used. The areas under the ΔPWL versus time curves (AUCΔPWL) as well as the areas under the ΔPV versus time curves (AUCΔPV) were calculated using the linear trapezoidal rule. Statistical evaluation was done by SPSS 9.02 for Windows. Effects of study medications were assessed by submitting the AUCΔPV from 0-8 h to univariate analysis of variance (ANOVA) with subsequent t-tests employing a Bonferroni […]-correction for multiple comparisons. Statistical significance of ΔPWL was calculated by unpaired Student's t-test (zymosan-treated rats versus control rats). □ was set at 0.05.

calpain [3] = experiment: Calpain inhibition (statement, no method given); type: biochemical; conditions: statement without data
[4] = following systemic administration; cited from earlier work
m-calpain = experiment: Calpain protein expression in spinal cord after zymosan treatment (anti-m-calpain immunohistochemistry); type: in vivo, rat; conditions: 96 h after zymosan, pre-treatment with inhibitor
Experimental: (§1) Unilateral hind paw inflammation and paw oedema was induced by subcutaneous injection of 1.25 mg zymosan (Sigma, München, Germany), suspended in 100 μl phosphate buffered saline (12.5 mg/ml), into the midplantar region of the right hind paw. After 24, 48 or 96 h animals were anaesthetized and killed by cardiac puncture. Spinal cords were excised, directly frozen in liquid nitrogen and then kept at −80° C. until further analysis.
(§2) Calpain inhibitor III (MDL 28170) (Calbiochem, Schwalbach/Ts., Germany) was dissolved in PEG 400/DMSO (1:1) at a concentration of 10 mg/ml. Animals received calpain inhibitor III either as a 12.5 mg/kg or a 25 mg/kg intraperitoneal (i.p.) bolus injection 20 min prior to the intraplantar injection of zymosan. Six animals were used for each treatment group. (Controls received 1 ml of vehicle.) Treatments were randomly allocated to animals and the observers were unaware of treatment allocations.
For immunohistochemical staining, the lumbal spinal cord segments were excised, directly frozen in liquid nitrogen and stored at −80° C. Fresh-frozen tissue sections (14 μm) were cut in a cryostat, mounted on gelatin-subbed slides, and fixed for 10 min in 4% paraformaldehyd in PBS (pH 7.4). Slides were washed with three 10-min washes in PBS and treated for 15 min with PBS containing 0.1% Triton-X 100. […]

calpain [5] = experiment: Calpain activity of spinal cord extracts of zymosan treated rats (fluorometric cleavage of Ac-LLY-AFC); type: in vivo, rat
Experimental: as §1, §2

calpain [6] = conditions: described in literature, cited from earlier work
[7] = tested on: neurofilament light chain (NF-L); experiment: Neurofilament light chain (NF-L) degradation in spinal cord after zymosan treatment (immunohistochemistry); type: in vivo, rat; conditions: for NF-L immunofluorescence in spinal cord slices: 96 h after zymosan, pre-treatment with inhibitor; for zymosan induced neurofilament degradation: rats, 12.5 mg/kg and 25 mg/kg i.p.
Experimental: as §1, §2
For immunohistochemical staining, the lumbal spinal cord segments were excised, directly frozen in liquid nitrogen and stored at −80° C. Fresh-frozen tissue sections (14 μm) were cut in a cryostat, mounted on gelatin-subbed slides, and fixed for 10 min in 4% paraformaldehyd in PBS (pH 7.4). Slides were washed with three 10-min washes in PBS and treated for 15 min with PBS containing 0.1% Triton-X 100. The sections were then blocked in 3% BSA in PBS for 1 h to reduce nonspecific binding and then incubated with pimary monoclonal antibody, anti-NFL (1:100; Sigma) and anti-m-calpain (1:50; Affinity BioReagents) for 1 h at 37° C. NF-L and m-calpain were flourescently labelled with a 1 h incubation at 37° C. with Cy3-conjugated secondary antibody (1:600; Sigma). Slides were washed with three 10-min washes in PBS after each incubation. Primary and secondary antibody incubations were performed in PBS containing 1% BSA. Slides were mounted with SlowFade Light Antifade mounting media according to manufacturer's protocol.
Immunohistochemistry was applied to determine the protein levels of neurofilament-L and calpain in rat spinal cord slices after zymosan treatment with and without additional administration of calpain inhibitor III.

[8] = tested as described for calpain inhibitor III
[9] = listed as Calpain inhibitor III

| SMILES | effects on nociception [1, 8] | effects on inflammation [2, 8] | calpain inhibition (calpain [3]) | blood-brain barrier penetration [4] | calpain (m-calpain) protein expression in spinal cord (m-calpain) | calpain (m-calpain) protein expression in spinal cord (m-calpain; listed as MDL-28170) | thermal hyperalgesia (paw withdrawal latency) [1] | thermal hyperalgesia (paw withdrawal latency) [1, 9] | zymosan-induced protease (calpain) activation in the spinal cord (calpain [5]; rats, 25 mg/kg i.p. 20 min prior to zymosan) | calpain activity of spinal cord extracts (calpain [5]; zymosan treated rats, calpain inhibitor III 12.5 mg/kg or 25 mg/kg i.p. before zymosan (FIG. 2 legend)) | calpain inhibition (calpain I and II) (calpain [6]) | calpain inhibition (calpain I and II) (calpain [6]; listed as MDL 28170) | paw oedema (AUC of paw volume increase 0-8 h) versus control ([2]; rats) | paw oedema (AUC of paw volume increase 0-8 h) versus control ([2]; rats, listed as Calpain inhibitor III) | paw inflammation (paw volume increase) ([2]; rats, doses of 12.5 and 25 mg/kg i.p.) | NF-L immunofluorescence in spinal cord slices [7] | NF-L immunofluorescence in spinal cord slices [7, 9] | zymosan induced neurofilament degradation [7] | zymosan induced neurofilament degradation ([7]; listed as MDL 28170) |
| --- | --- | --- | --- | --- | --- | --- | --- | --- | --- | --- | --- | --- | --- | --- | --- | --- | --- | --- | --- |
| CC(C)[C@H](NC(=O)OCc1ccccc1)C(=O)N[C@H](C=O)Cc1ccccc1 [MDL-102935] (Cbz-Val-Phe-aldehyde) | the same as those of MDL-28170 | the same as those of MDL-28170 | inhibitor of calpain |  |  |  |  |  |  |  |  |  |  |  |  |  |  |  |  |
| CC(C)[C@H](NC(=O)OCc1ccccc1)C(=O)N[C@H](C=O)Cc1ccccc1 [calpain inhibitor III, Carbobenzoxy-valinyl-phenylalaninal] (Cbz-Val-Phe-aldehyde) |  |  |  | rapidly penetrates the blood-brain barrier | not altered | not affected | antinociceptive responses; also recorded: significantly higher paw withdrawal latency; also recorded: attenuates | significantly reduces thermal hyperalgesia | significantly inhibited | reduced | potent, selective and cell-permeable inhibitor of calpain 1 and II | potent, specific calpain inhibitor | significantly reduced the paw edema; also recorded: statistically significant differences | significantly reduces the paw oedema | inhibited paw inflammation dose-dependently; also recorded: attenuates the development of zymosan induced paw inflammation | immunofluorescence levels comparable to control slices of untreated rats | reduced the loss of NF-L | attenuated the zymosan induced neurofilament degradation | blocked the degradation of neurofilament protein |
| COc1ccc2c(c1)c(CC(=O)O)c(C)n2C(=O)c1ccc(Cl)cc1 [indomethacin] |  |  |  |  |  |  |  |  |  |  | calpain inhibiting activity |  |  |  |  |  |  |  |  |
